Read-outs that look alike come from different tables or passages of the source.
What was measured:
[1] = HEK293T cytotoxicity counterscreen, luminescent ATP viability assay; conditions: human
Protocol: (§1) Compounds were screened at 5 μM with metronidazole (40 μM) as an inhibitor control and dimethyl sulfoxide (DMSO) as a neutral control. […] These primary hits were immediately assayed for reconfirmation and mammalian cytotoxicity against HEK293T cells in an 8-point dose-response format.
(§2) Experimental details for the assays were described previously ([50]). […] Assays were performed as previously reported ([51]).
(§3) Relative luminescence unit (RLU) values were analyzed in Genedata Screener (v13.0-Standard). RLU values were normalized to neutral controls minus inhibitors (DMSO-treated wells minus metronidazole-treated wells). For single-point primary assay plates, an additional run-wise median correction was applied to reduce screen artifacts, whereas no corrections were applied to triplicate dose-response plates. For the mammalian cytotoxicity assays, RLU values were uploaded into Genedata Screener, and the data were normalized to those for DMSO-treated wells minus puromycin-treated wells.

[2] = tested on: Giardia lamblia GS clone H7; test: G. lamblia GS clone H7 trophozoite growth, ATP-based bioluminescence assay (BacTiter-Glo), 1,536-well; assay type: cell-based; conditions: for Selectivity index (CC50/EC50): HEK293T CC50 / G. lamblia GS clone H7 EC50
Protocol: as §1
The primary screen was conducted at 5 μM. […] All source plates were 384-well acoustic, transfer-compatible plates with compounds prediluted in DMSO at either 2 mM or 10 mM. […] Primary screening was done with a single replicate, whereas dose-response testing was carried out in triplicate.
To prevent attachment to the bottle and tubing of the dispenser cassette, the bottle containing the culture was kept on ice throughout the dispensing process. […] The bags were heat sealed and the anaerobic generator was activated according to the manufacturer’s instructions. […] Luminescence was read on a ViewLux uHTS microplate imager (PerkinElmer) with medium-sensitivity luminescence at 30 s of exposure.
as §3

[3] = tested on: G. lamblia CBG99 (assemblage A); test: G. lamblia CBG99 luciferase strain cell growth inhibition assay; assay type: cell-based, Giardia lamblia; conditions: for inhibition of G. lamblia growth / inhibition at 5 µM: G. lamblia CBG99, compound at 5 μM; for EC50 / inhibition at 5 µM: Giardia duodenalis; for EC50: assemblage A, read-out: EC50 against G. lamblia strain CBG99
Protocol: Subsequent assays, including the mouse model of infection, used the G. lamblia click beetle green (CBG99) strain, which was grown and assayed as previously described ([11], [49]).
In vitro reconfirmation and expanded tests against EGFR-TKIs using the G. lamblia CBG99 strain were performed as previously described ([11]). […] The PK studies were performed in groups of 3 mice per compound. […] All animal experiments were approved by the Institutional Animal Care and Use Committees at the University of Washington.

HEK293T cells = test: in vitro
Protocol: as §1, §2, §3

[4] = tested on: metronidazole-resistant 713-M3 strain; test: Metronidazole-resistant G. lamblia 713-M3 cell growth inhibition assay; assay type: cell-based; conditions: Giardia duodenalis, read-out: EC50 against G. lamblia strain 713-M3
[5] = tested on: G. lamblia WB6 (assemblage A); test: G. lamblia WB6 cell growth inhibition assay; assay type: cell-based; conditions: Giardia duodenalis, read-out: EC50 against G. lamblia strain WB6
[6] = Giardia duodenalis, 48 h, 8-point dose response, triplicate, read-out: 48-h Giardia GS clone H7 EC50
[7] = 48 h, 8-point dose response, triplicate, read-out: 48-h Giardia GS clone H7 EC50
[8] = Giardia duodenalis, Table 2, assemblage B, read-out: EC50 against G. lamblia strain GS clone 7

SMILES | CC50 at 72 h ([1]; HEK293T cells) | EC50 [2, 6] | Selectivity index (CC50/EC50) [2] | further results
Cn1c([N+](=O)[O-])cnc1N1CCN(S(C)(=O)=O)C1=O [Satranidazole] | > 25 µM | 2.49 ± 0.04 µM | >10 | –
Cn1c([N+](=O)[O-])cnc1/C=C/c1ccnc(N)n1 [Azanidazole] | > 25 µM | 0.72 ± 0.06 µM | >35 | –
COc1cc2ncnc(Nc3cccc(Br)c3)c2cc1OC.Cl [PD153035-HCl] | – | – | – | inhibition of G. lamblia growth [3]: ≤ 50%
CCOC(=O)/C(=C/c1ncc([N+](=O)[O-])n1C)C(C)=O [Propenidazole] | – | – | – | CC50 (HEK293T cells): 16.9 ± 0.05 µM; EC50 [2, 7]: 2.55 ± 0.04 µM
O=C1NCCN1c1ncc([N+](=O)[O-])s1 [Niridazole] | – | 6.42 ± 0.06 µM | >4 | CC50 at 72 h [1]: > 25 µM
CC(=O)C[C@H]1CCCCN1 [Pelletierine] | – | 20.3 ± 0.07 µM | >1 | EC50 [4]: > 25 µM; CC50 [1]: > 25 µM; EC50 [2, 8]: 20.3 ± 0.07 µM; EC50 [3]: > 25 µM; EC50 [5]: > 25 µM
CCOc1cc2ncc(C#N)c(Nc3ccc(OCc4ccccn4)c(Cl)c3)c2cc1NC(=O)/C=C/CN(C)C [neratinib] | – | – | – | inhibition at 5 µM [3]: ≤ 50%
CC(=O)Nc1ncc([N+](=O)[O-])s1 [Aminitrozole] | > 25 µM | 7.11 ± 0.28 µM | >3 | –
CN(C)C/C=C/C(=O)Nc1cc2c(Nc3ccc(F)c(Cl)c3)ncnc2cc1O[C@H]1CCOC1 [afatinib] | – | – | – | inhibition at 5 µM [3]: ≤ 50%
Cc1ncc([N+](=O)[O-])n1CCOC(=O)c1ccccc1 [Benzoyl metronidazole] | > 25 µM | 2.43 ± 0.23 µM | >10 | –
COc1cc2ncnc(Nc3ccc(F)c(Cl)c3)c2cc1NC(=O)/C=C/CN1CCCCC1 [dacomitinib] | – | – | – | inhibition at 5 µM [3]: ≤ 50%
C=CC(=O)Nc1cccc(Oc2nc(Nc3ccc(N4CCN(C)CC4)c(F)c3)nc3[nH]ccc23)c1.O=C(O)/C=C\C(=O)O [avitinib maleate] | – | – | – | inhibition of G. lamblia growth [3]: ≤ 50%
CCS(=O)(=O)CCn1c([N+](=O)[O-])cnc1C [Tinidazole] | – | 5.7 ± 0.08 µM | >4 | CC50 at 72 h [1]: > 25 µM
CS(=O)(=O)OCCN(CCBr)c1c(C(=O)NCCOP(=O)(O)O)cc([N+](=O)[O-])cc1[N+](=O)[O-] [PR-104] | – | – | >13 | CC50 at 72 h [1]: > 25 µM; EC50 ([2]; Giardia duodenalis, 48 h, read-out: 48-h Giardia GS clone H7 EC50): 1.98 ± 0.07 µM
CCCN(CCC)c1ccc(/N=N/c2ccccc2C(=O)O)cc1 [Propyl red] | > 25 µM | 5.78 ± 0.07 µM | >4 | –
CSc1ccc(OCc2ncc([N+](=O)[O-])n2C)cc1 [Fexinidazole] | > 25 µM | 6.39 ± 0.16 µM | >4 | –
C=CC(=O)Nc1ccc2ncnc(Nc3cccc(Br)c3)c2c1 [PD168393] | – | – | – | inhibition of G. lamblia growth [3]: ≤ 50%

SMILES | CC50 at 72 h ([1]; HEK293T cells) | EC50 [2, 6] | Selectivity index (CC50/EC50) [2] | further results
Cc1ncc([N+](=O)[O-])n1CCc1ccncc1 [Panidazole] | > 25 µM | 1.85 ± 0.68 µM | >14 | –
CS(=O)(=O)CCNCc1ccc(-c2ccc3ncnc(Nc4ccc(OCc5cccc(F)c5)c(Cl)c4)c3c2)o1 [lapatinib ditosylate] | – | – | – | inhibition at 5 µM [3]: ≤ 50%
O=[N+]([O-])c1ccc(-c2nc3ccccc3[nH]2)o1 [2-(5-Nitro-2-furyl) benzimidazole] | > 25 µM | 5.8 ± 0.13 µM | >4 | –
N#CC(C#N)=Cc1ccc(O)c(O)c1 [AG-18] | – | – | – | inhibition of G. lamblia growth [3]: ≤ 50%
C=CC(=O)Nc1cccc(Nc2nc(Nc3ccc(N4CCN(C(C)=O)CC4)cc3OC)ncc2C(F)(F)F)c1 [rociletinib] | – | – | – | inhibition at 5 µM [3]: ≤ 50%
CNC(=O)CN1CCC(Oc2cc3c(Nc4cccc(Cl)c4F)ncnc3cc2OC)CC1 [AZD8931] | – | – | – | inhibition at 5 µM [3]: ≤ 50%
Cn1c([N+](=O)[O-])cnc1/C=N/N1CC(CN2CCOCC2)OC1=O (stereo not shown) [Moxnidazole] | > 25 µM | 6.11 ± 0.11 µM | >4 | –
Cc1ncc([N+](=O)[O-])n1CC(O)CCl (stereo not shown) [Ornidazole] | – | 1.82 ± 0.04 µM | >14 | CC50 at 72 h [1]: > 25 µM
CC(=O)Oc1ccccc1C(=O)Nc1ncc([N+](=O)[O-])s1 [Nitazoxanide] | > 25 µM | 6.45 ± 0.11 µM | >4 | –
CS(=O)(=O)Nc1ccc(C(=O)O[C@@H](Cc2c(Cl)c[n+]([O-])cc2Cl)c2ccc(OC(F)F)c(OCC3CC3)c2)cc1OCC1CC1 [CHF-6001] | > 25 µM | 2.03 ± 0.1 µM | >12 | –
Cc1ncc([N+](=O)[O-])n1CCO [Metronidazole] | – | 7.12 ± 0.06 µM | >3 | EC50 [4]: > 25 µM; CC50 at 72 h [1]: > 25 µM; EC50 [2, 8]: 7.12 ± 0.06 µM; EC50 [3]: 2.87 ± 0.34 µM; EC50 ([5]; assemblage A): 2.33 ± 0.06 µM
Cn1c([N+](=O)[O-])cnc1C(O)c1cc(C(C)(C)C)ccc1O (stereo not shown) [Abunidazole] | – | – | – | CC50 (HEK293T cells): > 25 µM; EC50 [2, 7]: 1.08 ± 0.02 µM
COc1cc2ncnc(Nc3cccc(Cl)c3)c2cc1OC [AG-1478] | – | – | – | inhibition of G. lamblia growth [3]: ≤ 50%
C#Cc1cccc(Nc2ncnc3cc(OCCOC)c(OCCOC)cc23)c1 [erlotinib] | – | – | – | inhibition at 5 µM [3]: ≤ 50%
COC(=S)NCCn1c([N+](=O)[O-])cnc1C [Carnidazole] | > 25 µM | 3.01 ± 0.06 µM | >8 | –
N#C/C(=C\c1ccc(O)c(O)c1)C(=O)NCc1ccccc1 [AG-490] | – | – | – | inhibition of G. lamblia growth [3]: ≤ 50%
Cc1ncc([N+](=O)[O-])n1CC(C)O (stereo not shown) [Secnidazole] | – | 6.57 ± 0.09 µM | >4 | CC50 at 72 h [1]: > 25 µM

Source: publication PMC9295539 (Antimicrobial Agents and Chemotherapy, 2022)
